Source: ChEMBL document CHEMBL3430912, “GSK Tres Cantos Anti-Kinetoplastid Screening (TCAKS) Data”

Key:
NIH3T3 = test: GSK_TCAKS: pIC50 NIH 3T3 cell line viability assay using luminiscence. Tissue culture surface treated assay plates (1536-well) were used. […] The 100% cells survival control was determined exposing the host-cells to a 0.5% DMSO concentration, whereas the 100% toxicity control was achieved by seeding the cells in presence of Amphotericin B at 50uM. Plates were incubated for four days at 37C, 5% CO2. The assay readout was developed by addition of 5uL of CellTiter-Glo Reagent following the manufacturer's instructions. Luminiscence was measured using a ViewLux.; format: functional, cell-based; conditions: Mus musculus, NIH3T3, 96 h
Leishmania donovani [1] = test: GSK_TCAKS: pIC50 Leishmania donovani Imaging: Infected Macrophages. Assay plates (384-well) were prepared by adding 250nL of compound to each well. For single shot assay, the final compound concentration was 5 uM. […] Automated image analysis was performed with a script developed on Acapella High Content Imaging and Analysis Software (PerkinElmer). Output: Percent of infected macrophage cells were reported for each well.; format: functional, organism-based, Homo sapiens; conditions: THP-1
[2] = molecular target: Sterol 14-alpha demethylase (Trypanosoma cruzi (strain CL Brener), UniProt Q7Z1V1); test: GSK_TCAKS: pIC50 CYP51 from Trypanosoma cruzi.; format: functional
Leishmania donovani [3] = test: GSK_TCAKS: pIC50 Leishmania donovani Imaging: Amastigotes/Macrophages. Assay plates (384-well) were prepared by adding 250nL of compound to each well. For single shot assay, the final compound concentration was 5 uM. […] Automated image analysis was performed with a script developed on Acapella High Content Imaging and Analysis Software (PerkinElmer). Output: Average number of amastigotes per macrophage cell were reported for each well.; format: functional, organism-based, Homo sapiens; conditions: THP-1
[4] = tested on: Trypanosoma brucei brucei; test: GSK_TCAKS: pIC50 Trypanosoma brucei viability assay using fluorescence intensity. Assay plates (1536-well) were prepared by dispensing 25nL of compound solution per well using an Echo acoustic dispenser (Labcyte).; format: functional, organism-based; conditions: Lister 427, 2 h
[5] = GSK_TCAKS: pIC50 HepG2 human cell line viability assay using luminiscence. […] Seeding density was checked to ensure that new mono-layers were not more than 50% confluent at the time of harvesting. Cell suspension was added to 500 mL of the same medium at a final density of 1.2 * 10^5 cells/mL. This cell suspension was dispensed (25 uL, 3000 cells per well) into 384-well clear-bottom plates using a Multidrop Combi dispenser. Prior to addition of the cell suspension, the screening compounds (250 nL) were pre-dispensed into the plates with an Echo liquid handler. Plates were incubated for 48 h at 37C, 5% CO2. After incubation, plates equilibrated at room temperature for 30 min before proceeding to develop the luminescent signal. The signal developer, CellTiter-Glo Reagent, was allowed to equilibrate at room temperature for 30 min and added to the plates (25uL per well) using a Multidrop Combi dispenser. Plates were left for 10 min at room temperature for stabilization and then read using a ViewLux.; format: toxicity, cell-based
Trypanosoma cruzi [6] = test: (§1) GSK_TCAKS: pIC50 Trypanosoma cruzi Imaging: Infected Cells. […] Cells were then washed once with PBS before infection. T. cruzi trypomastigotes, collected at days 5 to 8 after infection from LLC-MK2 parasite infected cultures, were allowed to swim out for 4h at 37C from a centrifuged pellet (2,500 rpm/10 min/room temperature). Trypomastigotes were then collected and counted in a CASY Cell Counter. Trypomastigotes, in supplemented DMEM, were added to H9c2 cultures in a multiplicity of infection of 1 and incubated for 18 h. Cells were washed once with PBS before incubation of the infected H9c2 monolayer with trypsin (Life-Technologies) to detach cells from the flask. Cells were counted in a CASY Cell Counter using a 150 um capillary and their density set at 5 * 10^4 cells per mL in supplemented assay DMEM. Infected H9c2 were dispensed into 384-well poly-lysine coated assay plates at 50uL per well using a Multidrop Combi dispenser. After seeding them, the plates were incubated at 37C, 5% CO2 for 72h. Cultures were then fixed and stained by addition of 50 uL of a solution containing 8% formaldehyde and 4 uM DRAQ5 DNA dye (BioStatus, UK) per well. […] Five images were collected per well for reliable statistical analysis. Automated image analysis was performed with a script developed on Acapella High Content Imaging and Analysis Software (PerkinElmer). Output: percentage of infected cells per well as a second infection marker.; format: functional, organism-based, Rattus norvegicus; conditions: H9c2, 4 h
Trypanosoma cruzi [7] = test: GSK_TCAKS: pIC50 Trypanosoma cruzi Imaging: Amastigotes/Cell. […] Cells were then washed once with PBS before infection. T. cruzi trypomastigotes, collected at days 5 to 8 after infection from LLC-MK2 parasite infected cultures, were allowed to swim out for 4h at 37C from a centrifuged pellet (2,500 rpm/10 min/room temperature). Trypomastigotes were then collected and counted in a CASY Cell Counter. Trypomastigotes, in supplemented DMEM, were added to H9c2 cultures in a multiplicity of infection of 1 and incubated for 18 h. Cells were washed once with PBS before incubation of the infected H9c2 monolayer with trypsin (Life-Technologies) to detach cells from the flask. Cells were counted in a CASY Cell Counter using a 150 um capillary and their density set at 5 * 10^4 cells per mL in supplemented assay DMEM. Infected H9c2 were dispensed into 384-well poly-lysine coated assay plates at 50uL per well using a Multidrop Combi dispenser. After seeding them, the plates were incubated at 37C, 5% CO2 for 72h. Cultures were then fixed and stained by addition of 50 uL of a solution containing 8% formaldehyde and 4 uM DRAQ5 DNA dye (BioStatus, UK) per well. […] Five images were collected per well for reliable statistical analysis. Automated image analysis was performed with a script developed on Acapella High Content Imaging and Analysis Software (PerkinElmer). Output: number of amastigotes per cell as infection level measurement.; format: functional, organism-based, Rattus norvegicus; conditions: H9c2, 4 h
Leishmania donovani [8] = test: GSK_TCAKS: pIC50 Leishmania donovani viability assay using fluorescence intensity. Assay plates (1536-well) were prepared by adding 30nL per well of compound. For single shot assay, the final compound concentration was 5uM. […] Briefly, eGFP LdBOB axenic amastigotes were harvested, fixed and counted in a CASY cell counter (Roche-Applied Science). A final concentration of 1.5 * 10^5 cells per well were prepared in amastigote media containing 500 U/mL penicillin/streptomycin (Invitrogen) and 6uL was dispensed to each experimental well using a Multidrop Combi dispenser (Thermo Scientific). 6uL of assay media was dispensed to control columns used as reference for 100% compound response. Following incubation for 72 h at 37C, 5% CO2, 2 uL of resazurin was added to each well at a final concentration of 0.5 mM in phosphate buffered saline (PBS) with IGEPAL (Sigma-Aldrich), 0.05% (v/v).; format: functional, organism-based
Trypanosoma cruzi [9] = test: as §1, with “H2C9” for “Trypanosoma cruzi”, “H9c2 Host Cardiomyocytes.” for “Infected Cells.”, “Number” for “percentage”, “H9c2 Host Cardiomyocytes nuclei to determine drug-related cytotoxicity.” for “infected cells per well as a second infection marker.”; format: functional, organism-based, Rattus norvegicus; conditions: H9c2, 4 h
Leishmania donovani [10] = test: GSK_TCAKS: pIC50 Leishmania donovani Imaging: THP-1 Host Macrophages. Assay plates (384-well) were prepared by adding 250nL of compound to each well. For single shot assay, the final compound concentration was 5 uM. […] Automated image analysis was performed with a script developed on Acapella High Content Imaging and Analysis Software (PerkinElmer). Output: THP-1 cell count were reported for each well.; format: functional, organism-based, Homo sapiens
[11] = tested on: Trypanosoma brucei brucei; test: GSK_TCAKS: pIC50 Trypanosoma brucei viability assay using luminiscence. Assay plates (1536-well) were prepared. T. brucei cultures were harvested and counted in a CASY cell counter. A parasite suspension was prepared at a final concentration of 5 * 10^4 cells/mL in complete HMI9 medium and 6uL was dispensed to all wells containing compounds using a Multidrop Combi dispenser. 6uL of HMI9 media with 0.4% DMSO were dispensed to control columns. Plates were incubated for 24 h at 37C, 5% CO2 then tempered for 10 min at room temperature. ATP content was quantified by adding 4 uL of CellTiter-Glo Reagent (Promega) according to the manufacturer's instructions. Luminescence was measured using a ViewLux.; format: functional, organism-based; conditions: Lister 427, CASY
Trypanosoma cruzi [12] = test: GSK_TCAKS: pIC50 Trypanosoma cruzi viability assay using beta-GAL activity. This assay was run at single shot at 5uM compound concentration per well. The biological reagents consisted of NIH-3T3 host cells and trypomastigotes parasitic cells; both cell types were set to a 3.3 * 10^5 cells/mL dilution in assay DMEM by means of a CASY cell counter device using a 60um capillary. 6 uL of the mixture were dispensed per well (about 1 * 10^3 host-cells and 1 * 10^3 parasites) with a Multidrop Combi dispenser. […] In all wells, the percentage of DMSO never exceeded 0.5%. Plates incubated for four days at 37C, 5% CO2. The substrate used for the assay fluorescence intensity (FLINT) readout was resorufin-beta-D-galactopiranoside (Sigma-Aldrich) at 5uM per well. It was diluted in PBS supplemented with the soft detergent Igepal (Fluka).; format: functional, organism-based, Mus musculus; conditions: Tulahuen, NIH3T3

Chain of Sterol 14-alpha demethylase (Q7Z1V1 whole entry): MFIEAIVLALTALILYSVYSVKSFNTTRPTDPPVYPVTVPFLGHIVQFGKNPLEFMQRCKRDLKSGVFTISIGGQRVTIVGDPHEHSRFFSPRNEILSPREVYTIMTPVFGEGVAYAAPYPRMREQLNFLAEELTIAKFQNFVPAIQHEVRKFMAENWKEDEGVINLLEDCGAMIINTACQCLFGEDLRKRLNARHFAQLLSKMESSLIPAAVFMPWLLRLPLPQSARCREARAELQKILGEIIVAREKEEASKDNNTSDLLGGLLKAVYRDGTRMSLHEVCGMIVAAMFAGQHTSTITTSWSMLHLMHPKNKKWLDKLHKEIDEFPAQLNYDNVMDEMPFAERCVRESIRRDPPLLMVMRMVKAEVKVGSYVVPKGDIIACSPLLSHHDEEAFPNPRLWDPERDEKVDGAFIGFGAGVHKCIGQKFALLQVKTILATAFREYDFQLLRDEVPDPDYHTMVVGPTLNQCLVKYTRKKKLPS

| Structure (SMILES) | IC50 (NIH3T3) [µM] | IC50 (Leishmania donovani [1]) [µM] | IC50 [2] [µM] | IC50 (Leishmania donovani [3]) [µM] | IC50 [4] [µM] | IC50 at 48 h [5] [µM] | IC50 (Trypanosoma cruzi [6]) [µM] | IC50 (Trypanosoma cruzi [7]) [µM] | IC50 (Leishmania donovani [8]) [µM] | IC50 (Trypanosoma cruzi [9]) [µM] | IC50 (Leishmania donovani [10]) [µM] | IC50 [11] [µM] | IC50 (Trypanosoma cruzi [12]) [µM] |
| --- | --- | --- | --- | --- | --- | --- | --- | --- | --- | --- | --- | --- | --- |
| O=C(c1cccc(Cl)c1Cl)N1CCn2c1nc(-c1ccncc1)cc2=O | 20 | > 50.1 | 0.0631 | 31.6 | 15.8 | > 100 | 0.316 | 0.316 | 50.1 | > 50.1 | > 50.1 | 31.6 | 0.178 |
| O=C(CSc1ccc(F)cc1)N[C@@H](Cc1c[nH]cn1)C(=O)NCCc1ccccc1 | 12.6 | > 50.1 | 0.0794 | > 50.1 | > 39.8 | > 100 | 0.501 | 0.501 | > 50.1 | > 50.1 | > 50.1 | > 39.8 | 0.447 |
| O=C(c1ccc(OCCCc2cnc[nH]2)cc1)C1CC1 | 12.6 | > 50.1 | 0.0501 | 7.94 | 10 | > 100 | 1.58 | 1.26 | > 50.1 | > 50.1 | > 50.1 | > 39.8 | 0.355 |
| O=C(Cn1cnc2cc([N+](=O)[O-])ccc2c1=O)NCCc1ccc(Cl)cc1Cl | > 50.1 | > 50.1 | > 100 | > 50.1 | 12.6 | > 100 | 0.398 | 0.2 | > 50.1 | > 50.1 | > 50.1 | > 39.8 | 0.631 |
| N#Cc1cc(N2CCCC2=O)ccc1Sc1ccccc1CO | > 50.1 | > 50.1 | 20 | > 50.1 | 39.8 | > 100 | 0.398 | 0.251 | > 50.1 | > 50.1 | > 50.1 | 31.6 | 0.251 |
| CCC1Oc2cc(S(=O)(=O)N(C)CC(=O)N3CCc4ccccc4C3)c(C)cc2NC1=O (stereo not given) | > 50.1 | > 50.1 | 0.794 | 31.6 | 25.1 | > 100 | 0.251 | 0.251 | > 50.1 | > 50.1 | > 50.1 | 31.6 | 0.2 |
| O=S(=O)(c1cccc(CSc2nnc(-c3ccc4c(c3)OCO4)o2)c1)N1CCOCC1 | 15.8 | 0.794 | 12.6 | 0.251 | 31.6 | > 100 | 0.1 | 0.0398 | 0.501 | 25.1 | > 50.1 | > 39.8 | 0.224 |
| Cc1ccc(NC(=O)c2ccc(Cl)c(NC(=O)c3ccc([N+](=O)[O-])cc3)c2)cc1 | 20 | > 50.1 | > 100 | > 50.1 | 7.94 | > 100 | 0.501 | 0.2 | > 50.1 | > 50.1 | > 50.1 | 15.8 | 0.631 |
| Cc1c(C#N)c([N+](=O)[O-])nn1Cc1cccc(Cl)c1Cl | 39.8 | > 50.1 | > 100 | 15.8 | 15.8 | 79.4 | 0.1 | 0.0398 | > 50.1 | > 50.1 | 15.8 | 25.1 | 0.2 |
| CC1(Oc2cncc(Cl)c2)CCN(Cc2cc3ccccc3[nH]2)C1 (stereo not given) | 10 | 20 | 10 | 31.6 | > 39.8 | 31.6 | 1.58 | 1 | > 50.1 | 10 | 31.6 | > 39.8 | 1 |
